One test concerns the target recombinant β-secretase (Homo sapiens, UniProt P56817). In words: β-secretase inhibitory activity against recombinant β-secretase. The note with it: for fold lower enzyme inhibitory potency: compared to 3a.
Test [1] has as its system β-secretase in neuroblastoma cells. The note with it: Neuroblastoma cell.
The test system of a further test is transgenic AD mice. As to conditions: cited from earlier work.

Sequence of recombinant β-secretase (P56817 46-501): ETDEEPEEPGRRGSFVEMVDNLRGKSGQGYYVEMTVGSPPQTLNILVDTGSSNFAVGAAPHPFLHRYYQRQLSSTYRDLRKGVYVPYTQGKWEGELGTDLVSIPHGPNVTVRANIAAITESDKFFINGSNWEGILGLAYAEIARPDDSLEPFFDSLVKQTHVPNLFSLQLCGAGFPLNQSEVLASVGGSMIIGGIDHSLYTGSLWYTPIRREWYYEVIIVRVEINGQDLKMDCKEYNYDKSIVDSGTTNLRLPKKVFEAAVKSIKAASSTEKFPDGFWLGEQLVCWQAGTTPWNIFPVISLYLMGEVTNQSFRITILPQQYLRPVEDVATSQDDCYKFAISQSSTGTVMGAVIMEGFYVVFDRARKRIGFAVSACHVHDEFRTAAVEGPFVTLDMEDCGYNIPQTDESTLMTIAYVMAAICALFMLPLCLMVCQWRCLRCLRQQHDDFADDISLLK

For the molecule `CN(C(=O)CC[C@@H](C1CCCOC1)N1Cc2cc(Oc3ccccc3)ccc2N=C1N)C1CCCCC1` (stereo partly shown) [3g], the “fold lower enzyme inhibitory potency” value at recombinant β-secretase is roughly 5 fold.

For the molecule `CN(C(=O)OC[C@@H](C1CCCCC1)N1Cc2cc(Oc3ccccc3)ccc2N=C1N)C1CCCCC1` [3d], the fold improved potency at recombinant β-secretase (over 3c) was found to be 20 fold.

Consider `CN(C(=O)OC[C@@H](c1ccccc1)N1Cc2cc(Oc3ccccc3)ccc2N=C1N)C1CCCCC1` [3c], for which the “fold loss of potency” value on recombinant β-secretase (compared to 3b) is reported as roughly 5 fold.

Consider `NC1=Nc2ccc(Oc3ccccc3)cc2CN1[C@@H](CCC(=O)N(Cc1cn[nH]c1)C1CCCCC1)C1CCCCC1` [4h], for which, in test [1], it took 0.048 µM to reach half-maximal inhibition (IC50).

Turning to `CN(C(=O)CC[C@@H](c1ccccc1)N1Cc2cc(Oc3ccccc3)ccc2N=C1N)C1CCCCC1` [3b], on recombinant β-secretase, the “fold lower enzyme inhibitory potency” value was roughly 6 fold.

As for `COc1cccc(CNC[C@@H](O)[C@H](Cc2ccccc2)NC(=O)c2cc(C(=O)N[C@H](C)c3ccccc3)cc(N(C)S(C)(=O)=O)c2)c1` [GRL-8234], the “effect on cognitive function” value with transgenic AD mice is “rescued the decline of cognitive function”.

As for `COCc1nc(CN(C(=O)CC[C@@H](C2CCCCC2)N2Cc3cc(Oc4ccccc4)ccc3N=C2N)C2CCCCC2)cs1` [4f], the “fold improvement of enzyme activity” value on recombinant β-secretase (over 4b) is given as roughly 6 fold.

The values are drawn from publication PMC3423587 (Bioorganic & medicinal chemistry letters, 2012).
